Reference: patent US9416127B2, “Triazole carboxamides and uses thereof” (Hoffmann-La Roche Inc., priority 2012, dated 2016)
Where a name gives a salt, the structure may show the parent alone.

Key:
rat TAAR1 = rat TAAR1 (Rattus norvegicus (Rat), UniProt Q923Y9); test: Radioligand binding assay on rat TAAR1; settings: for Ki: rat TAAR1, HEK-293 membranes, second value of mouse/rat cell
Experimental: (§1) Construction of TAAR Expression Plasmids and Stably Transfected Cell Lines
(§2) For the construction of expression plasmids the coding sequences of human, rat and mouse TAAR 1 were amplified from genomic DNA essentially as described by Lindemann et al.. The Expand High Fidelity PCR System (Roche Diagnostics) was used with 1.5 mM Mg^2+ and purified PCR products were cloned into pCR2.1-TOPO cloning vector (Invitrogen) following the instructions of the manufacturer. PCR products were subcloned into the pIRESneo2 vector (BD Clontech, Palo Alto, Calif.), and expression vectors were sequence verified before introduction in cell lines.
(§3) HEK293 cells (ATCC # CRL-1573) were cultured essentially as described by Lindemann et al. (2005). For the generation of stably transfected cell lines HEK293 cells were transfected with the pIRESneo2 expression plasmids containing the TAAR coding sequences (described above) with Lipofectamine 2000 (Invitrogen) according to the instructions of the manufacturer, and 24 hrs post transfection the culture medium was supplemented with 1 mg/ml G418 (Sigma, Buchs, Switzerland). After a culture period of about 10 d clones were isolated, expanded and tested for responsiveness to trace amines (all compounds purchased from Sigma) with the cAMP Biotrak Enzyme immunoassay (EIA) System (Amersham) following the non-acetylation EIA procedure provided by the manufacturer.
Radioligand Binding Assay on Rat TAAR1
(§4) Membrane Preparation and Radioligand Binding.
(§5) HEK-293 cells stably expressing rat TAAR1 were maintained at 37° C. and 5% CO2 in DMEM high glucose medium, containing fetal calf serum (10%, heat inactivated for 30 min at 56° C.), penicillin/streptomycin (1%), and 375 μg/ml geneticin (Gibco). Cells were released from culture flasks using trypsin/EDTA, harvested, washed twice with ice-cold PBS (without Ca^2+ and Mg^2+), pelleted at 1'000 rpm for 5 min at 4° C., frozen and stored at −80° C. Frozen pellets were suspended in 20 ml HEPES-NaOH (20 mM, pH 7.4) containing 10 mM EDTA and homogenized with a Polytron (PT 6000, Kinematica) at 14'000 rpm for 20 s. The homogenate was centrifuged at 48'000×g for 30 min at 4° C. Subsequently, the supernatant was removed and discarded, and the pellet resuspended in 20 ml HEPES-NaOH (20 mM, pH 7.4) containing 0.1 mM EDTA using the Polytron (20 s at 14'000 rpm). This procedure was repeated and the final pellet resuspended in HEPES-NaOH containing 0.1 mM EDTA and homogenized using the Polytron. Typically, aliquots of 2 ml membrane portions were stored at −80° C. With each new membrane batch the dissociation constant (Kd) was determined via a saturation curve. […] Nonspecific binding was defined as the amount of ^3[H]—(S)-4-[(ethyl-phenyl-amino)-methyl]-4,5-dihydro-oxazol-2-ylamine bound in the presence of 10 μM unlabeled ligand. All compounds were tested at a broad range of concentrations (10 μM to 10 μM) in duplicates. […] The 96 deep well plates were incubated for 1 hr at 4° C. Incubations were terminated by rapid filtration through Unifilter-96 plates (Packard Instrument Company) and glass filters GF/C (Perkin Elmer) presoaked for 1 hr in polyethylenimine (0.3%) and washed 3 times with 1 ml of cold binding buffer. After addition of 45 μl of Microscint 40 (PerkinElmer) the Unifilter-96 plate was sealed and after 1 hr the ratioactivity counted using a TopCount Microplate Scintillation Counter (Packard Instrument Company).

mouse TAAR1 = mouse TAAR1 (Mus musculus (Mouse), UniProt Q923Y8); test: Radioligand binding assay on mouse TAAR1; settings: for Ki: mouse TAAR1, HEK-293 membranes, first value of mouse/rat cell
mouse TAAR1, sequence (Q923Y8 whole entry): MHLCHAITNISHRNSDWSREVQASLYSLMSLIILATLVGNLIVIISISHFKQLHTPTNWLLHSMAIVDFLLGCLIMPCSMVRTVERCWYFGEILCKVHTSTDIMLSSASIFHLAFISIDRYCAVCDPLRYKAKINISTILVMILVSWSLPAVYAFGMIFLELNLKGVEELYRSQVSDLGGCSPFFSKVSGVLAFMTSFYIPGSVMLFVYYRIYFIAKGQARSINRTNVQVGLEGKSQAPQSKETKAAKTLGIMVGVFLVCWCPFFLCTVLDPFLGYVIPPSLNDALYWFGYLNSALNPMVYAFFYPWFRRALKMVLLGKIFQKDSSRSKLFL
Experimental: as §1, §2, §3
Radioligand Binding Assay on Mouse TAAR1
as §4
as §5, with “expressing mouse” for “expressing rat”, “(10 pM” for “(10 μM”

rat TAAR1, sequence (Q923Y9 whole entry): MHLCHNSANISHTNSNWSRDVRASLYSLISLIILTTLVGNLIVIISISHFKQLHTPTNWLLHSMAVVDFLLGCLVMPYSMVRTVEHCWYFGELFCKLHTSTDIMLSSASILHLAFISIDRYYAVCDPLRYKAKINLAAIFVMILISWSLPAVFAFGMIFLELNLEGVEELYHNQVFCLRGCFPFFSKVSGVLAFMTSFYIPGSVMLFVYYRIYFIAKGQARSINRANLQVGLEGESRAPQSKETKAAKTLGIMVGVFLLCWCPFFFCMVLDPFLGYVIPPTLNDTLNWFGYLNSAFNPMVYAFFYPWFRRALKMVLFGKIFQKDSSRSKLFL

Ki (rat TAAR1)	Ki (mouse TAAR1)	Kd (rat TAAR1; rat TAAR1 membranes, saturation curve, read-out: dissociation constant (Kd) of radioligand)	Kd (mouse TAAR1; mouse TAAR1 membranes, saturation curve, read-out: dissociation constant (Kd) of radioligand)	Compound
0.0154 µM	0.0068 µM	–	–	O=C(Nc1ccc([C@H]2CNCCO2)cc1)c1cn(-c2cccc(OC(F)(F)F)c2)nn1 [Example 27, (S)—N-(4-(Morpholin-2-yl)phenyl)-1-(3-(trifluoromethoxy)phenyl)-1H-1,2,3-triazole-4-carboxamide hydrochloride]
0.0006 µM	0.0009 µM	–	–	O=C(Nc1ccc([C@H]2CNCCO2)cc1)c1cn(-c2cccc(OC(F)F)c2)nn1 [Example 29, (S)-1-(3-(Difluoromethoxy)phenyl)-N-(4-(morpholin-2-yl)phenyl)-1H-1,2,3-triazole-4-carboxamide hydrochloride]
0.0082 µM	0.0032 µM	–	–	COc1cccc(-n2ncc(C(=O)Nc3ccc([C@H]4CNCCO4)cc3)n2)c1 [Example 30, (S)-2-(3-Methoxyphenyl)-N-(4-(morpholin-2-yl)phenyl)-2H-1,2,3-triazole-4-carboxamide hydrochloride]
0.107 µM	0.013 µM	–	–	CCOc1cccc(-n2ncc(C(=O)Nc3ccc([C@H]4CNCCO4)cc3)n2)c1 [Example 31, hydrochloride]
0.045 µM	0.0018 µM	–	–	O=C(Nc1ccc([C@H]2CNCCO2)cc1)c1ncn(-c2ccc(OC(F)F)cc2)n1 [Example 32, (S)-1-(4-(Difluoromethoxy)phenyl)-N-(4-(morpholin-2-yl)phenyl)-1H-1,2,4-triazole-3-carboxamide hydrochloride]
0.03 µM	0.0046 µM	–	–	O=C(Nc1ccc([C@H]2CNCCO2)cc1)c1cn(-c2ccc(Br)cn2)nn1 [Example 36, (S)-1-(5-Bromopyridin-2-yl)-N-(4-(morpholin-2-yl)phenyl)-1H-1,2,3-triazole-4-carboxamide hydrochloride]
–	–	~2.3 nM	~0.7 nM	CCN(C[C@H]1COC(N)=N1)c1ccccc1 [^3[H]—(S)-4-[(ethyl-phenyl-amino)-methyl]-4,5-dihydro-oxazol-2-ylamine, reference compound]

Compound	Ki (rat TAAR1)	Ki (mouse TAAR1)	Kd (rat TAAR1; rat TAAR1 membranes, saturation curve, read-out: dissociation constant (Kd) of radioligand)	Kd (mouse TAAR1; mouse TAAR1 membranes, saturation curve, read-out: dissociation constant (Kd) of radioligand)
Cc1cccc(-n2cc(C(=O)Nc3ccc([C@H]4CNCCO4)cc3)nn2)c1 [Example 24, (S)—N-(4-(Morpholin-2-yl)phenyl)-1-m-tolyl-1H-1,2,3-triazole-4-carboxamide hydrochloride]	0.0069 µM	0.0013 µM	–	–
COc1cccc(-n2cc(C(=O)Nc3ccc([C@H]4CNCCO4)cc3)nn2)c1 [Example 25, (S)-1-(3-Methoxyphenyl)-N-(4-(morpholin-2-yl)phenyl)-1H-1,2,3-triazole-4-carboxamide hydrochloride]	0.0092 µM	0.0014 µM	–	–
CCOc1cccc(-n2cc(C(=O)Nc3ccc([C@H]4CNCCO4)cc3)nn2)c1 [Example 26, (S)-1-(3-Ethoxyphenyl)-N-(4-(morpholin-2-yl)phenyl)-1H-1,2,3-triazole-4-carboxamide hydrochloride]	0.0032 µM	0.0011 µM	–	–
O=C(Nc1ccc([C@H]2CNCCO2)cc1)c1cnn(-c2cccc(OC(F)(F)F)c2)n1 [Example 28, (S)—N-(4-(Morpholin-2-yl)phenyl)-2-(3-(trifluoromethoxy)phenyl)-2H-1,2,3-triazole-4-carboxamide hydrochloride]	0.0156 µM	0.0034 µM	–	–
